System: IFNγ secretion in whole blood stimulated with heat-killed Staphylococcus epidermidis
Test: in vitro whole blood assay stimulated with Staphylococcus epidermidis, measuring IFNγ
Assay type: cell-based
Conditions: 24 hours; for inhibitory activity of IFNg secretion resulting from Staphylococcus epidermidis stimulation: IFNγ by ELISA; for IFNγ concentration: at 62.5 nMol test compound, cut from 4500 pg/ml; for inhibition of IFNγ: lowest concentration of 62.5 nMol
Description: The following experimental work illustrates the invention. This involves an in vitro whole blood assay stimulated with Staphylococcus epidermidis, measuring IFNγ. IFNγ as a key mediator in pathological processes in ocular inflammatory disease, namely age-related macular degeneration (Penfold et al, 2002) and proliferative vitreoretinopathy (El-Ghrably et al, 2001). 1:100 diluted heat-killed Staphylococcus epidermidis in conjunction with various concentrations of test compound (in a stock DMSO solution) was added to a 100-fold volume of whole blood. After 24 hours, whole blood was diluted 1:4 and IFNγ was measured by enzyme-linked immuno-absorptive assay.

| Structure (SMILES) | inhibitory activity of IFNg secretion resulting from Staphylococcus epidermidis stimulation | IFNγ concentration | inhibition of IFNγ |
| --- | --- | --- | --- |
| CC(C(O)c1ccc(O)cc1)N1CCC(Cc2ccccc2)CC1 (racemic) [ifenprodil erythro racemate, ifenprodil] | strong inhibitory activity | 1500 pg/mL | 66% |
| CC(NCCc1ccc(O)cc1)C(O)c1ccc(O)cc1 (racemic) [ritodrine racemate, ritodrine] | strong inhibitory activity | 1500 pg/mL | 66% |

Reference: patent US20090137686A1, “Treatment of Ophthalmic Diseases” (priority 2005, published 2009)
